The NIST ThermoML archive (doi:10.1016/j.fluid.2018.04.007)
Numbers after ± are expanded uncertainties.

Assays:
[1] = refractive index (Na D-line) (dimensionless); xn = mol fraction of the nth substance listed; conditions: 101 kPa, Liquid, Standard Abbe refractometry
[2] = relative permittivity at various frequencies (dimensionless); xn = mol fraction of the nth substance listed; conditions: 101 kPa, Liquid, Frequency=1 MHz, Parallel plate capacitor

CCCCCCN [1-hexanamine] + CCCCCO
refractive index ([1]; 293.15 K, x2 = 0): 1.41813 ± 0.00033 | refractive index ([1]; 293.15 K, x2 = 0.0472): 1.41838 ± 0.00033 | refractive index ([1]; 293.15 K, x2 = 0.1005): 1.41862 ± 0.00033 | refractive index ([1]; 293.15 K, x2 = 0.1648): 1.41884 ± 0.00033 | refractive index ([1]; 293.15 K, x2 = 0.2022): 1.41896 ± 0.00033 | refractive index ([1]; 293.15 K, x2 = 0.3102): 1.41908 ± 0.00033 | refractive index ([1]; 293.15 K, x2 = 0.3982): 1.41895 ± 0.00033 | refractive index ([1]; 293.15 K, x2 = 0.5002): 1.41846 ± 0.00033 | refractive index ([1]; 293.15 K, x2 = 0.6005): 1.41756 ± 0.00033 | refractive index ([1]; 293.15 K, x2 = 0.7122): 1.41609 ± 0.00033 | refractive index ([1]; 293.15 K, x2 = 0.7963): 1.41463 ± 0.00033 | refractive index ([1]; 293.15 K, x2 = 0.8457): 1.41364 ± 0.00033 | refractive index ([1]; 293.15 K, x2 = 0.8982): 1.41246 ± 0.00033 | refractive index ([1]; 293.15 K, x2 = 0.9362): 1.41153 ± 0.00033 | refractive index ([1]; 298.15 K, x2 = 0): 1.41563 ± 0.00033 | refractive index ([1]; 298.15 K, x2 = 0.0472): 1.41592 ± 0.00033 | refractive index ([1]; 298.15 K, x2 = 0.1005): 1.41622 ± 0.00033 | refractive index ([1]; 298.15 K, x2 = 0.1648): 1.41649 ± 0.00033 | refractive index ([1]; 298.15 K, x2 = 0.2022): 1.4166 ± 0.00033 | refractive index ([1]; 298.15 K, x2 = 0.3102): 1.41679 ± 0.00033 | refractive index ([1]; 298.15 K, x2 = 0.3982): 1.41671 ± 0.00033 | refractive index ([1]; 298.15 K, x2 = 0.5002): 1.41623 ± 0.00033 | refractive index ([1]; 298.15 K, x2 = 0.6005): 1.41543 ± 0.00033 | refractive index ([1]; 298.15 K, x2 = 0.7122): 1.41403 ± 0.00033 | refractive index ([1]; 298.15 K, x2 = 0.7963): 1.41259 ± 0.00033 | refractive index ([1]; 298.15 K, x2 = 0.8457): 1.41164 ± 0.00033 | refractive index ([1]; 298.15 K, x2 = 0.8982): 1.41048 ± 0.00033 | refractive index ([1]; 298.15 K, x2 = 0.9362): 1.40957 ± 0.00033 | refractive index ([1]; 303.15 K, x2 = 0): 1.41324 ± 0.00033 | refractive index ([1]; 303.15 K, x2 = 0.0472): 1.4136 ± 0.00033 | refractive index ([1]; 303.15 K, x2 = 0.1005): 1.41392 ± 0.00033 | refractive index ([1]; 303.15 K, x2 = 0.1648): 1.41424 ± 0.00033 | refractive index ([1]; 303.15 K, x2 = 0.2022): 1.41438 ± 0.00033 | refractive index ([1]; 303.15 K, x2 = 0.3102): 1.41458 ± 0.00033 | refractive index ([1]; 303.15 K, x2 = 0.3982): 1.41451 ± 0.00033 | refractive index ([1]; 303.15 K, x2 = 0.5002): 1.41407 ± 0.00033 | refractive index ([1]; 303.15 K, x2 = 0.6005): 1.41329 ± 0.00033 | refractive index ([1]; 303.15 K, x2 = 0.7122): 1.41193 ± 0.00033 | refractive index ([1]; 303.15 K, x2 = 0.7963): 1.41054 ± 0.00033 | refractive index ([1]; 303.15 K, x2 = 0.8457): 1.40958 ± 0.00033 | refractive index ([1]; 303.15 K, x2 = 0.8982): 1.40844 ± 0.00033 | refractive index ([1]; 303.15 K, x2 = 0.9362): 1.40754 ± 0.00033 | relative permittivity ([2]; 293.15 K, x2 = 0): 3.967 ± 0.37 | relative permittivity ([2]; 293.15 K, x2 = 0.052): 4.248 ± 0.38 | relative permittivity ([2]; 293.15 K, x2 = 0.1079): 4.563 ± 0.39 | relative permittivity ([2]; 293.15 K, x2 = 0.1601): 4.876 ± 0.4 | relative permittivity ([2]; 293.15 K, x2 = 0.2014): 5.146 ± 0.41 | relative permittivity ([2]; 293.15 K, x2 = 0.31): 5.924 ± 0.44 | relative permittivity ([2]; 293.15 K, x2 = 0.3982): 6.653 ± 0.46 | relative permittivity ([2]; 293.15 K, x2 = 0.5031): 7.689 ± 0.49 | relative permittivity ([2]; 293.15 K, x2 = 0.6013): 8.827 ± 0.52 | relative permittivity ([2]; 293.15 K, x2 = 0.6916): 10.025 ± 0.55 | relative permittivity ([2]; 293.15 K, x2 = 0.7952): 11.649 ± 0.59 | relative permittivity ([2]; 293.15 K, x2 = 0.8396): 12.419 ± 0.61 | relative permittivity ([2]; 293.15 K, x2 = 0.9006): 13.582 ± 0.63 | relative permittivity ([2]; 293.15 K, x2 = 0.9431): 14.457 ± 0.65 | relative permittivity ([2]; 298.15 K, x2 = 0): 3.905 ± 0.37 | relative permittivity ([2]; 298.15 K, x2 = 0.052): 4.176 ± 0.38 | relative permittivity ([2]; 298.15 K, x2 = 0.1079): 4.485 ± 0.39 | relative permittivity ([2]; 298.15 K, x2 = 0.1601): 4.785 ± 0.4 | relative permittivity ([2]; 298.15 K, x2 = 0.2014): 5.047 ± 0.41 | relative permittivity ([2]; 298.15 K, x2 = 0.31): 5.796 ± 0.43 | relative permittivity ([2]; 298.15 K, x2 = 0.3982): 6.494 ± 0.45 | relative permittivity ([2]; 298.15 K, x2 = 0.5031): 7.486 ± 0.48 | relative permittivity ([2]; 298.15 K, x2 = 0.6013): 8.567 ± 0.51 | relative permittivity ([2]; 298.15 K, x2 = 0.6916): 9.702 ± 0.54 | relative permittivity ([2]; 298.15 K, x2 = 0.7952): 11.246 ± 0.58 | relative permittivity ([2]; 298.15 K, x2 = 0.8396): 11.973 ± 0.6 | relative permittivity ([2]; 298.15 K, x2 = 0.9006): 13.084 ± 0.62 | relative permittivity ([2]; 298.15 K, x2 = 0.9431): 13.913 ± 0.64 | relative permittivity ([2]; 303.15 K, x2 = 0): 3.846 ± 0.36 | relative permittivity ([2]; 303.15 K, x2 = 0.052): 4.11 ± 0.38 | relative permittivity ([2]; 303.15 K, x2 = 0.1079): 4.408 ± 0.39 | relative permittivity ([2]; 303.15 K, x2 = 0.1601): 4.701 ± 0.4 | relative permittivity ([2]; 303.15 K, x2 = 0.2014): 4.957 ± 0.41 | relative permittivity ([2]; 303.15 K, x2 = 0.31): 5.675 ± 0.43 | relative permittivity ([2]; 303.15 K, x2 = 0.3982): 6.348 ± 0.45 | relative permittivity ([2]; 303.15 K, x2 = 0.5031): 7.298 ± 0.48 | relative permittivity ([2]; 303.15 K, x2 = 0.6013): 8.319 ± 0.51 | relative permittivity ([2]; 303.15 K, x2 = 0.6916): 9.397 ± 0.54 | relative permittivity ([2]; 303.15 K, x2 = 0.7952): 10.864 ± 0.57 | relative permittivity ([2]; 303.15 K, x2 = 0.8396): 11.555 ± 0.59 | relative permittivity ([2]; 303.15 K, x2 = 0.9006): 12.61 ± 0.61 | relative permittivity ([2]; 303.15 K, x2 = 0.9431): 13.397 ± 0.63
